According to patent US12036222B2, “Methods of treating cancers overexpressing CARM1 with EZH2 inhibitors and a PARP inhibitor” (The Wistar Institut of Anatomy and Biology, priority 2018, dated 2024):
Entries after “also recorded” stand apart in the source; their conditions may differ.

Tests used:
[1] = test system: A1847 parental and CARM1 knockout cells; experiment: Epigenetic targeting small molecule set screen (14-day colony formation); assay type: cell-based, human; settings: 14 days, normalized to vehicle
Description: FIG. 26 illustrates that CARM1-expressing cells are selectively sensitized to EZH2 inhibitors. Equal number of parental control or CARM1 knockout […] cells were plated and treated with each of the 23 individual epigenetic inhibitors for 14 days. The media with the inhibitors was refreshed every 3 days. Cell growth was quantified as integrated density using NIH Image J software. Quantification of the average integrated density graphed as a scatter plot. The X-axis indicates the relative growth of treated CARM1 high parental […] cells compared with DMSO vehicle controls. Y-axis indicates the relative growth of treated CARM1 knockout […] cells compared with DMSO vehicle controls. n=4; and error bars represents SEM. FIG. 27 illustrates a table of EZH2 inhibitors that are selective against CARM1 expression. CARM1-high parental controls and CARM1 knockout […] cells were treated with the indicated concentration of the small molecules in a 14-day colony formation assay. Integrated density for each well was calculated using NIH Image J software. The relative growth of the indicated cells was determined by normalizing to the vehicle control treated cells. n=4 and p-value was calculated using a two-tailed t-test. […] parental and CARM1 knockout cells were plated in 24-well plates and treated with 24 epigenetic compounds. Cell medium was changed every three days with appropriate drug doses for 14 days or until control wells became confluent. Colonies were washed twice with PBS and fixed with 10% methanol and 10% acetic acid in distilled water. Fixed colonies were stained with 0.005% crystal violet. Integrated density was measured using NIH ImageJ software as a surrogate for cell growth.

CARM1-depleted cells = experiment: Colony formation assay with CARM1-depleted cells; assay type: cell-based; settings: CARM1-depleted vs normal cells, GSK126 vs DMSO
Description: To confirm the relationship between CARM1 overexpression and sensitivity to EZH2 inhibition, further studies were performed to assess the impact of CARM1 depletion. In FIG. 9, a Western blot of CARM1 and BAF155me2 in CARM1 depleted cells with a control (Actin) is shown. In addition, the results of a colony formation assay (unstained, magnified) with normal and CARM1-depleted cells, in DMSO (control) and treated with GSK126, are shown in FIG. 10. A colony formation assay with normal and CARM1-depleted cells, in DMSO (control) and after treatment with GSK126 is shown in FIG. 11, with the results quantified in FIG. 12. Finally, FIG. 13 illustrates the results of treatment of CARM1 depleted cells with GSK126.
(§1) 500 to 5,000 cell were plated into a 24 well tissue culture plate and treated with the indicated compounds. Medium was changed every three days with appropriate drug doses for 12 days or until control wells became confluent. Colonies were washed twice with PBS and fixed with 10% methanol and 10% acetic acid in distilled water. Fixed colonies were stained with 0.005% crystal violet. Integrated density was measured using NIH ImageJ software.

HOSE or FTE cells = experiment: Colony formation assay in normal HOSE and FTE cells; assay type: cell-based, human; settings: 10 μM GSK126, colony formation
Description: FIG. 33 illustrates relative growth of the indicated HOSE, FTE, and EOC cancer cell lines with high or low CARM1 expression treated with 10 μM GSK126 or vehicle in a colony formation assay as determined by NIH Image J quantification.
as §1

NHEJ genes = experiment: Expression of NHEJ genes; assay type: cell-based; settings: CARM1 expressing cells
TIMP3 promoter = experiment: ChIP-qPCR at TIMP3 promoter; assay type: cell-based, human; settings: A1847 cells, 10 μM GSK126
Description: FIGS. 62 to 65 illustrate the results of a ChIP analysis in parental control and CARM1 knockout A1847 cells treated with 10 μM GSK126 or vehicle controls. The cells were subjected to ChIP analysis using anti-EZH2 (FIG. 62), anti-H3K27Me3 (FIG. 63), anti-BAF155 (FIG. 64), or anti-RNA Pol II (FIG. 65) antibodies. An isotype-matched IgG was used as a negative control. ChIP products were subjected to qPCR analysis using primers specific for the promoter regions of the human TIMP3 genes. Mean of three independent experiments with SEM.* p<0.001 compared with controls.
ChIP was performed as described in Tu et al. Developmental Cell(2011) 21:1077-91. The following antibodies were used to perform ChIP: anti-H3K27Me3 (Cell Signaling, Cat. No: 9733), anti-BAF155 (Santa Cruz, Cat. No: sc-9746), anti-RNA polymerase II (Santa Cruz, Cat. No: sc-899) or anti-EZH2 (Cell Signaling, Cat. No: 5246). An isotype matched IgG was used as a negative control. ChIP DNA was analyzed by quantitative PCR against the promoter of the indicated genes using the following primers: DAB2 Forward: 5′-[…]-3′ (SEQ ID NO: 10) and DAB2 Reverse: 5′-[…]-3′ (SEQ ID NO: 11); DLC1 Forward: 5′-[…]-3′ (SEQ ID NO: 12) and DLC1 Reverse: 5′-[…]-3′ (SEQ ID NO: 13); NOXA Forward: 5′-[…]-3′ (SEQ ID NO: 14) and NOXA Reverse: 5′-[…]-3′ (SEQ ID NO: 15); TIMP3 Forward: 5′-[…]-3′ (SEQ ID NO: 16) and TIMP3 Reverse: 5′-[…]-3′ (SEQ ID NO: 17).

[2] = test system: CARM1-expressing A1847 tumors; experiment: Subcutaneous xenograft model, CARM1-expressing A1847 cells; assay type: in vivo, NSG mice; settings: 50 mg/kg daily i.p., three weeks
Description: The protocols were approved by the Institutional Animal Care and Use Committee (IACUC). 5×10^6 control A1847 or A1847 CARM1 knockout cells were unilaterally injected subcutaneously into 6-8-week old female immunocompromised NSG mice (n=5 per group). One week after injection the mice were randomized and treated with vehicle control (20% captisol) or GSK126 (50 mg/kg daily). Tumor size was measured every 3 days for 3 weeks. At end of the experiments, tumors were surgically dissected and tumor burden was calculated based on tumor weight.
EZH2 inhibitors, such as GSK126, are used safely in clinical trials for hematopoietic malignancies (Ribrag et al. Eur J Cancer (2014) 50:197). To determine the effects of EZH2 inhibition in vivo on the growth of CARM1-expressing ovarian tumors, two xenograft models were utilized. In the subcutaneous xenograft models, the injected CARM1-expressing A1847 cells were first allowed to grow for one week to establish the tumors. Mice were then randomized and treated daily with vehicle control or GSK126 (50 mg/kg) by intraperitioneal (i.p.) injection as reported (see, e.g., Bitler et al. Nature Medicine (2015) 21:231-8 and McCabe et al. Nature (2012) 492:108-12). […] To more closely mimic the tumor microenvironment, A1847 cells were orthotopically transplanted into the bursa covering the ovary of immunocompromised NSG mice. […]

## CC[C@H](C)n1cc(C)c2c(C(=O)NCc3c(C)cc(C)[nH]c3=O)cc(-c3ccc(N4CCNCC4)nc3)cc21 [GSK126, (S)-1-(sec-butyl)-N-((4,6-dimethyl-2-oxo-1,2-dihydropyridin-3-yl)methyl)-3-methyl-6-(6-(piperazin-1-yl)pyridin-3-yl)-1H-indole-4-carboxamide]
[1]
  selective growth suppression of CARM1-expressing vs CARM1 KO cells: showed selectivity against CARM1-expressing cells; also recorded: selectively sensitive
CARM1-depleted cells
  sensitivity after CARM1 depletion: abrogating the sensitivity
HOSE or FTE cells
  growth of HOSE or FTE cells: did not affect the growth; also recorded: didn't affect the growth
NHEJ genes
  expression of NHEJ genes: restores the expression of NHEJ genes
TIMP3 promoter
  association of BAF155 and Pol II with the TIMP3 promoter: CARM1 KO but not EZH2 inhibitor GSK126 treatment decreased the association
[2]
  growth of CARM1-expressing tumors: significantly inhibited the growth
